In US11077126B2 (priority 2017, dated 2021):

How the values were obtained:
[1] = tested on: transplanted tumor of human non-small cell lung cancer A549 cells; assay: Human non-small cell lung cancer in nude mice model; conditions: 30 mg/kg i.g. 30 d
Experimental: (§1) A549 cells in a logarithmic growth phase were taken and subjected to a trypan blue exclusion experiment showing that the cell viability was more than 95%, then the cells were subjected to trypsinization, centrifugation, and supernatant removal. Then cell concentration was adjusted to 1×10^7/ml with matrigel, then each nude mouse was inoculated subcutaneously with 0.2 ml of cells at its right armpit and recorded as the first day of inoculation. When the tumor growed to be greater than or equal to 100 mm^3, the mice were randomly divided into 5 groups with 6 mice in each group. […] Each group was continuously administered intragastrically for 30 days with a dose of 20 ml/kg. The mice were sacrificed the next day after drug withdrawal and the indicators were tested. The long diameter and short diameter of the tumor, and the body weight of each mouse were recorded every 3 days from drug administration to nude mouse sacrifice.
(§2) The body weight of the nude mice and the long diameter (a) and short diameter (b) of the transplanted tumor were measured every 3 days, and the tumor volume (v), relative tumor volume (RTV) and relative tumor proliferation rate (T/C) are calculated respectively according to the following formulas, wherein V=a×b^2/2; RTV=V/V0 (V0 is the tumor volume before administration, V is the tumor volume before sacrifice), and T/C (%)=treatment group RTV/model control group RTV×100%.
(§3) Each mouse was weighed and sacrificed. After the tumor was completely stripped off from the body of the mouse, the non-tumor tissues such as blood stains and fat were removed to weigh the tumor and calculate the tumor growth inhibition rate. The average tumor weight of each group of mice is used as an indicator of efficacy. Tumor growth inhibition rate (%)=(1−the average tumor weight of the treatment group/the average tumor weight of the model group)×100%.

[2] = tested on: transplanted tumor of human renal cell adenocarcinoma 769-P cells; assay: Human renal cell adenocarcinoma in nude mice model; conditions: 769-P nude mice; 30 mg/kg i.g. 30 d
Experimental: Then cell concentration was adjusted to 1×10^7/ml with matrigel, and then each nude mouse was inoculated subcutaneously with 0.2 ml of cells at its right armpit and recorded as the first day of inoculation. […] Each group was continuously administered intragastrically for 30 days with a dose of 20 ml/kg. The mice were sacrificed the next day after drug withdrawal and the indicators were tested. The long diameter and short diameter of tumor, and the body weight of each mouse were recorded every 3 days from drug administration to nude mouse sacrifice.
as §2, §3

[3] = tested on: transplanted tumor of human leukemia HL-60 cells; assay: Human leukemia in nude mice model; conditions: HL-60 nude mice; 30 mg/kg i.g. 30 d
Experimental: as §1, with “HL-60” for “A549”, “matrigel, and” for “matrigel,”, “inoculation.” for “inoculation. When the tumor growed to be greater than or equal to 100 mm^3, the mice were randomly divided into 5 groups with 6 mice in each group.”
as §2, §3

[4] = tested on: NK cell activity of spleen cells against K562 cells; assay: Natural killer (NK) cell activity of Lewis lung cancer tumor-bearing mice; assay type: in vivo, C57BL/6 mouse
Experimental: The serum-free RPMI 1640 medium was placed in a dish, and then the dish was placed on ice. The spleen was aseptically taken and gently ground with a sterile glass slide to prepare a single cell suspension. The single cell suspension was filtered with a double-layer sterile gauze, washed twice with serum-free RPMI 1640 medium, and centrifuged at 1,500 rpm for 5 min to remove the obtained supernatant. 2 mL of red blood cell lysate was added to the treated suspension, the mixture was allowed to stand for 2 min, and then 8 mL of RPMI 1640 medium was added, centrifuging was performed at 1,500 rpm for 5 min to remove the obtained supernatant, and then washing was performed twice with the RPMI 1640 medium. Trypan blue staining was performed to count the number of live cells, and the cell viability was more than 95%. […]
The spleen cell suspension was taken, and the cell density was adjusted to 1×10^7/mL (effector cells). […] Each mouse was set with: A. effector cells:target cell well (quantity ratio 20:1) to which 20 μL of spleen cell suspension and 100 μL of K562 cell suspension were added; B. an effector cell control well, to which 100 μL of spleen cell suspension and 100 μL of RPMI 1640 medium were added; and C. a target cell control well, to which 100 μL of K562 cell suspension and 100 μL of RPMI 1640 medium were added. […]

[5] = tested on: transplanted tumor of human hepatocarcinoma HepG-2 cells; assay: Human hepatocarcinoma in nude mice model; conditions: HepG-2 nude mice; 30 mg/kg i.g. 30 d
Experimental: Then cell concentration was adjusted to 1×10^7/ml with matrigel, and then each nude mouse was inoculated subcutaneously with 0.2 ml of cells at its right armpit and recorded as the first day of inoculation. […] Each group was continuously administered intragastrically for 30 days with a dose of 20 ml/kg. The mice were sacrificed the next day after drug withdrawal and the indicators were tested. The long diameter and short diameter of the tumor, and the body weight of each mouse were recorded every 3 days from drug administration to nude mouse sacrifice.
as §2, §3

## O=P1(N(CCCl)CCCl)NCCCO1 (stereo not shown) [Cyclophosphamide]
[1]
  Body Weight (g)(d1): 20.89 ± 0.91 g
  Body Weight (g)(d30): 18.97 ± 0.82 g
  Inhibition Rate (%): 81.25%
  Relative Tumor Proliferation Rate(T/C): 23.28%
  Relative Tumor Volume (RTV): 3.97 ± 0.68
  Tumor Volume (mm3) (d1): 127.26 ± 15.21 mm3
  Tumor Volume (mm3) (d30): 504.75 ± 143.63 mm3
  Tumor Weight: 0.21 ± 0.11 g
[2]
  Body Weight (g)(d1): 22.48 ± 0.91 g
  Body Weight (g)(d30): 21.28 ± 0.39 g
  Inhibition Rate (%): 76.09%
  Relative Tumor Proliferation Rate(T/C): 19.68%
  Relative Tumor Volume (RTV): 4.19 ± 1.29
  Tumor Volume (mm3) (d1): 178.48 ± 28.78 mm3
  Tumor Volume (mm3) (d30): 747.83 ± 138.57 mm3
  Tumor Weight: 0.61 ± 0.15 g
[3]
  Body Weight (g)(d1): 22.66 ± 1.11 g
  Body Weight (g)(d30): 20.52 ± 1.73 g
  Inhibition Rate (%): 81.37%
  Relative Tumor Proliferation Rate(T/C): 58.63%
  Relative Tumor Volume (RTV): 6.76 ± 2.53
  Tumor Volume (mm3) (d1): 209.22 ± 50.12 mm3
  Tumor Volume (mm3) (d30): 1415.16 ± 320.21 mm3
  Tumor Weight: 1.46 ± 0.24 g
[4]; 26 mg/kg, n = 6
  NK Cell Activity (%): 25.4 ± 6.6 %
[4]; cyclophosphamide, P<0.05
  NK cell activity compared with the control group: significantly lower
[5]
  Body Weight (g)(d1): 22.67 ± 1.54 g
  Body Weight (g)(d30): 21.52 ± 1.99 g
  Inhibition Rate (%): 63.48%
  Relative Tumor Proliferation Rate(T/C): 32.55%
  Relative Tumor Volume (RTV): 4.27 ± 0.26
  Tumor Volume (mm3) (d1): 146.12 ± 2.30 mm3
  Tumor Volume (mm3) (d30): 623.67 ± 28.44 mm3
  Tumor Weight: 0.46 ± 0.07 g
